Source: ChEMBL document CHEMBL4888484, “Replenishing the malaria drug discovery pipeline: Screening and hit evaluation of the MMV Hit Generation Library 1 (HGL1) against asexual blood stage Plasmodium falciparum ,using a nano luciferase reporter read-out” (2022)

Tests used:
[1] = Hit confirmation in dose-response curve in HepG2 cytotoxicity assay, at 72h; format: toxicity, cell-based; parameters: timepoint 72 hour; details: human, HepG2 cells
[2] = tested on: Plasmodium falciparum; experiment: Hit confirmation in dose-response curve in NF54 pLDH assay, at 72h; format: functional, organism-based; parameters: timepoint 72 hour; details: NF54, Erythrocyte
[3] = tested on: Plasmodium falciparum; experiment: Hit confirmation in dose-response curve in NF54 nanoGlo assay, at 12h; format: functional, organism-based, Erythrocyte; parameters: timepoint 12 hour
[4] = tested on: Plasmodium falciparum; experiment: Hit confirmation in dose-response curve in NF54 nanoGlo assay, at 72h; format: functional, organism-based, Erythrocyte; parameters: timepoint 72 hour
[5] = tested on: Plasmodium falciparum; experiment: Hit confirmation in dose-response curve in Dd2 pLDH assay, at 72h; format: functional, organism-based; parameters: timepoint 72 hour; details: Dd2, Erythrocyte
[6] = Plasmodium falciparum, NF54, Erythrocyte, 12 h
[7] = Plasmodium falciparum, NF54, Erythrocyte, 72 h

SMILES | IC50 at 72 h [1] | IC50 [2] | IC50 [3, 6] | IC50 [4, 7] | IC50 [5] | IC50 ([3]; erythrocyte) | IC50 ([4]; erythrocyte)
CC1CC(Nc2ncnc3cc(Br)ccc23)CCN1C (centres undefined) | > 10 µM | 1.58 µM | 1.55 µM | 1.05 µM | 1.07 µM |  | 
Cc1ccc(Cn2c(=O)c(C(=O)NCc3ccc4c(c3)OCO4)nn(-c3ccc(C(C)C)cc3)c2=O)cc1 | > 10 µM | 8.13 µM | > 10 µM | 2.69 µM | 3.39 µM |  | 
Nc1nc(N2CCN(c3ccc(F)c(Cl)c3)CC2)cc([C@H]2C[C@@H](N)C2)n1 | > 10 µM | 5.75 µM | 6.31 µM | 2.75 µM | 6.31 µM |  | 
c1cc(-c2nc3cc4ccccc4cc3[nH]2)nc(-c2nc3cc4ccccc4cc3[nH]2)c1 | 8.32 µM | 1.15 µM | 0.977 µM | 0.513 µM | 1.95 µM |  | 
Cc1ccccc1C(=O)N(Cc1cccc(F)c1)c1ccc(CC(=O)NCCN2CCCCC2)cc1 | > 10 µM | 2.75 µM | > 10 µM | 2.57 µM | 4.68 µM |  | 
CN1CCN(Cc2cc3cc4c(cc3nc2-c2ccc(Cl)cc2)OCO4)CC1=O | > 10 µM | > 10 µM | 4.47 µM | 4.07 µM | > 10 µM |  | 
CCC(=O)N1CCc2sc(S(=O)(=O)N3CCN(c4cc(C)ccc4C)CC3)cc2C1 | > 10 µM | > 10 µM | > 10 µM | 5.89 µM | > 10 µM |  | 
N#Cc1cccc(-c2n[nH]c3c2CN(c2ccc(-c4ccccc4)nn2)CC3)c1 | > 10 µM | 4.79 µM | 2.63 µM | 1.2 µM | 3.09 µM |  | 
CC(C)N1C(=O)NC(=O)C2(Cc3ccccc3N3CCN(Cc4ccccc4)CC32)C1=O (centres undefined) | > 10 µM | > 10 µM | > 10 µM | 3.98 µM | > 10 µM |  | 
Cc1cccc(CN2CCC[C@H](C(=O)c3ccc4c5c(cccc35)CC4)C2)n1 | > 10 µM | 3.72 µM | 4.57 µM | 1.66 µM | 5.5 µM |  | 
CC(C)(C)[C@H]1CCc2c(sc(NC(=O)C3(F)C(F)(F)C(F)(F)C(F)(F)C(F)(F)C3(F)F)c2C#N)C1 | 4.57 µM | 2.95 µM | 5.75 µM | 2.19 µM | 2.57 µM |  | 
COc1ccc(CNc2nc(-c3nnc(-c4ccccc4)o3)nc3ccccc23)cc1 | > 10 µM | > 10 µM | 0.776 µM | 3.02 µM | > 10 µM |  | 
Cc1noc(Cl)c1CC(=O)N1CCCC(C)(C)CC1 | > 10 µM | 5.62 µM | 7.94 µM | 2.29 µM | 4.07 µM |  | 
CCNc1ccnc(NCc2nc(-c3cccc(F)c3)c(-c3ccccn3)[nH]2)n1 | > 10 µM | 5.75 µM | 8.71 µM | 3.16 µM | > 10 µM |  | 
O=C(Nc1[nH]c(=O)ncc1F)c1coc(-c2ccccc2)n1 | > 10 µM | 0.0112 µM | > 10 µM | 0.00589 µM | > 10 µM |  | 
CCC(C)NCC(O)Cn1c(-c2ccccc2)c(-c2ccccc2)c2cc(C)ccc21 (centres undefined) | > 10 µM | 2.57 µM | 1.51 µM | 1.02 µM | 2.75 µM |  | 
CN(C(=O)C(C)(C)Nc1ncc(C(F)(F)F)cc1Cl)c1ccc(Cl)cc1 | > 10 µM | > 10 µM | 1.55 µM | 3.55 µM | > 10 µM |  | 
C[n+]1ccc(-c2ncc(-c3ccccc3)o2)c2ccccc21 | > 10 µM | 1.41 µM | 6.17 µM | 0.759 µM | 1.51 µM |  | 
O=c1nc2n(nc1-c1ccccc1)C1(CCC1)Nc1ccccc1-2 | > 10 µM | 2.82 µM | 4.07 µM | 0.759 µM | 1.86 µM |  | 

SMILES | IC50 at 72 h [1] | IC50 [2] | IC50 [3, 6] | IC50 [4, 7] | IC50 [5] | IC50 ([3]; erythrocyte) | IC50 ([4]; erythrocyte)
Cc1ccc[n+](Cc2ccc3ccccc3n2)c1 | > 10 µM | 3.24 µM | > 10 µM | 3.02 µM | 2.88 µM |  | 
Cc1ccc(S(=O)(=O)Nc2cc3nc4ccccc4nc3n2CCc2ccccc2)cc1 | > 10 µM | 10 µM | 3.24 µM | 2.34 µM | > 10 µM |  | 
O=C(Nc1cccc2cccnc12)c1ccccn1 | 3.47 µM | 0.871 µM | > 10 µM | 0.794 µM | 2 µM |  | 
O=C(N[C@@H](CN1CCCC1)c1ccccc1)N1CCC(c2ccn[nH]2)CC1 | > 10 µM | 2.24 µM | > 10 µM | 3.8 µM | 4.9 µM |  | 
CCC(C(=O)Nc1ccc2c(c1)CN(CCc1ccc(OC)c(OC)c1)C(=O)C(C)O2)c1ccccc1 (centres undefined) | > 10 µM | 2.88 µM | 0.912 µM | 0.288 µM | 1.82 µM |  | 
CC(C(=O)Nc1nccs1)N1CCCC(c2ccn[nH]2)C1 (centres undefined) | > 10 µM | 7.24 µM | > 10 µM | 3.09 µM | 3.09 µM |  | 
COc1cc(CNCCCN2CCOCC2)ccc1OCc1ccc(Cl)cc1 | > 10 µM | 4.47 µM | 6.03 µM | 2.88 µM | 2.95 µM |  | 
CCOc1ccc2ccccc2c1C(=O)Nc1cc(C)nn1-c1nc2c(c(=O)[nH]1)CCC2 | > 10 µM | 2 µM | > 10 µM | 0.589 µM | 2.09 µM |  | 
CN1CCC(N2CCN(Cc3ccc4cc(O)ccc4c3)CC2)CC1 | > 10 µM | 1.91 µM | 4.68 µM | 1.66 µM | 1.38 µM |  | 
COC(=O)c1c(NC(C)=O)c2cc(NC3CCOCC3)cnc2n1CCc1ccc(OC)cc1 | > 10 µM | > 10 µM | > 10 µM | > 10 µM | > 10 µM |  | 
Cc1cc(=O)c(OCC(=O)N2CCN([C@@H](c3ccccc3)c3ccc(Cl)cc3)CC2)c[nH]1 | > 10 µM | 5.01 µM | > 10 µM | 1.86 µM | 3.47 µM |  | 
COc1cccc(-c2nc(C)c(C(=O)Nc3n[nH]c(CC(C)C)n3)s2)c1 | > 10 µM | > 10 µM | 0.794 µM | 0.676 µM | > 10 µM | 0.631 µM | 1.17 µM
Cc1cc(N(C)CCC2CC2)nc([C@H](C)N(C)CCC2CC2)n1 | > 10 µM | 2.4 µM | 7.94 µM | 1.38 µM | 2.19 µM |  | 
C[C@@H](CNc1nc(-c2ccccc2)nc2nc(-c3ccc(Cl)cc3)oc12)N1CCCCC1 | > 10 µM | 7.59 µM | 9.55 µM | 3.39 µM | 5.89 µM |  | 
COc1ccc(CN(Cc2ccncc2)CC2CCN(C3CCN(C)CC3)CC2)c(F)c1 | > 10 µM | 1.45 µM | 2.82 µM | 1.29 µM | 1.17 µM |  | 
CC(C)[C@@H]1CC[C@H](C)C[C@H]1OC(=O)Cn1cc(-c2ccc(Cl)cc2)[n+]2c1CCC2 | > 10 µM | 2.34 µM | 5.01 µM | 0.955 µM | 1.2 µM |  | 
CN(C)c1noc(CN2CCc3ccc(F)cc3C2)n1 | > 10 µM | 7.24 µM | > 10 µM | 5.01 µM | > 10 µM |  | 
NC(=O)C1CCN(CCC(=O)N2CCc3cc4ccc3[C@@H]2c2cccc(c2)OCCCNC(=O)c2cc(ccc2O)O4)CC1 | > 10 µM |  | 3.16 µM |  |  |  | 
